Laboratory results as given in patent publication US12435044B2, “Pyridazinone herbicides and pyridazinone intermediates used to prepare a herbicide” (FMC Corporation, priority 2018, dated 2025).

Columns and labels:
Assay type in all cases: in vivo
kochia (Kochia scoparia) [1] = assay: Test A pre-/postemergence greenhouse test
From the text: (§1) Seeds of plant species selected from barnyardgrass (Echinochloa crus-galli), kochia (Kochia scoparia), ragweed (common ragweed, Ambrosia elatior), ryegrass, Italian (Lolium multiflorum), foxtail, giant (Setaria faberii), foxtail, green (Setaria viridis) and pigweed (Amaranthus retroflexus) were planted into a blend of loam soil and sand and treated preemergence with a directed soil spray using test chemicals formulated in a non-phytotoxic solvent mixture which included a surfactant.
(§2) At the same time, plants selected from these weed species and also wheat (Triticum aestivum), corn (Zea mays), blackgrass (Alopecurus myosuroides) and galium (catchweed bedstraw, Galium aparine) were planted in pots containing the same blend of loam soil and sand and treated with postemergence applications of test chemicals formulated in the same manner. Plants ranged in height from 2 to 10 cm and were in the one- to two-leaf stage for the postemergence treatment. Treated plants and untreated controls were maintained in a greenhouse for approximately 10 d, after which time all treated plants were compared to untreated controls and visually evaluated for injury. Plant response ratings, summarized in Table A, are based on a 0 to 100 scale where 0 is no effect and 100 is complete control. A dash (-) response means no test result.

[2] = system: ryegrass, Italian (Lolium multiflorum); assay: Test A pre-/postemergence greenhouse test
From the text: as §1, §2

[3] = system: ragweed (common ragweed, Ambrosia elatior); assay: Test A pre-/postemergence greenhouse test
From the text: as §1, §2

[4] = system: pigweed (Amaranthus retroflexus); assay: Test A pre-/postemergence greenhouse test
From the text: as §1, §2

[5] = system: barnyardgrass (Echinochloa crus-galli); assay: Test A pre-/postemergence greenhouse test
From the text: as §1, §2

kochia (Kochia scoparia) [6] = assay: Test D pre-/postemergence controlled growth environment test
From the text: (§3) Seeds of plant species selected from blackgrass (Alopecurus myosuroides), galium (catchweed bedstraw, Galium aparine), kochia (Kochia scoparia), oilseed rape (Brassica napus), barley, spring (Hordeum vulgare), wheat, spring (Triticum aestivum), oat, wild (Avena fatua), barley, winter (Hordeum vulgare) and wheat, winter (Triticum aestivum) were planted into a silt loam soil and treated preemergence with test chemicals formulated in a non-phytotoxic solvent mixture which included a surfactant.
(§4) At the same time, plants selected from these crop and weed species and also bluegrass (annual bluegrass, Poa annua), canarygrass (littleseed canarygrass, Phalaris minor), chickweed (common chickweed, Stellaria media), bromegrass, downy (downy bromegrass, Bromus tectorum), field poppy (Papaver rhoeas), field violet (Viola arvensis), foxtail, green (Setaria viridis), deadnettle (henbit deadnettle, Lamium amplexicaule), ryegrass, Italian (Lolium multiflorum), lambsquarters (Chenopodium album), pigweed (Amaranthus retroflexus), chamomile (scentless chamomile, Matricaria inodora), Russian thistle (Salsola kali), speedwell (bird's-eye speedwell, Veronica persica), buckwheat, wild (Polygonum convolvulus), mustard, wild (Sinapis arvensis), radish, wild (Raphanus raphanistrum), windgrass (Apera spica-venti), geranium, cutleaf (Geranium dissectum) and Canada thistle (Cirsium arvense) were planted in pots containing Redi-Earth® planting medium (Scotts Company, 14111 Scottslawn Road, Marysville, Ohio 43041) comprising spaghnum peat moss, vermiculite, wetting agent and starter nutrients and treated with postemergence applications of the test chemicals formulated in the same manner. Plants ranged in height from 2 to 18 cm (1- to 4-leaf stage). Treated plants and controls were maintained in a controlled growth environment for 14 to 21 d after which time all species were compared to controls and visually evaluated. Plant response ratings, summarized in Table D, are based on a scale of 0 to 100 where 0 is no effect and 100 is complete control. A dash (-) response means no test result.

[7] = system: blackgrass (Alopecurus myosuroides); assay: as above
From the text: as §3, §4

oat, wild (Avena fatua) = assay: as above
From the text: as §3, §4

[8] = system: wheat, spring (Triticum aestivum); assay: as above
From the text: as §3, §4

[9] = system: barley, winter (Hordeum vulgare); assay: as above
From the text: as §3, §4

[10] = system: wheat, winter (Triticum aestivum); assay: as above
From the text: as §3, §4

[11] = system: oilseed rape (Brassica napus); assay: as above
From the text: as §3, §4

[12] = system: galium (catchweed bedstraw, Galium aparine); assay: as above
From the text: as §3, §4

[13] = system: barley, spring (Hordeum vulgare); assay: as above
From the text: as §3, §4

Cc1ccc2ccc(C)c(-c3c(O)c(Cl)nn(C)c3=O)c2c1 [Cpd. No. 20, 6-chloro-4-(2,7-dimethyl-1-naphthalenyl)-5-hydroxy-2-methyl-3(2H)-pyridazinone]
Plant response rating (0 to 100 scale) (kochia (Kochia scoparia) [1]; Postemergence, 31 g ai/ha): 70 | Plant response rating (0 to 100 scale) (kochia (Kochia scoparia) [1]; Postemergence, 125 g ai/ha): 90 | Plant response rating (0 to 100 scale) (kochia (Kochia scoparia) [1]; Preemergence, 31 g ai/ha): 30 | Plant response rating (0 to 100 scale) (kochia (Kochia scoparia) [1]; Preemergence, 125 g ai/ha): 90 | Plant response rating (0 to 100 scale) ([2]; Postemergence, 31 g ai/ha): 90 | Plant response rating (0 to 100 scale) ([2]; Postemergence, 125 g ai/ha): 100 | Plant response rating (0 to 100 scale) ([2]; Preemergence, 31 g ai/ha): 90 | Plant response rating (0 to 100 scale) ([2]; Preemergence, 125 g ai/ha): 100 | Plant response rating (0 to 100 scale) ([3]; Postemergence, 31 g ai/ha): 90 | Plant response rating (0 to 100 scale) ([3]; Postemergence, 125 g ai/ha): 90 | Plant response rating (0 to 100 scale) ([3]; Preemergence, 31 g ai/ha): 20 | Plant response rating (0 to 100 scale) ([3]; Preemergence, 125 g ai/ha): 90 | Plant response rating (0 to 100 scale) ([4]; Postemergence, 31 g ai/ha): 90 | Plant response rating (0 to 100 scale) ([4]; Postemergence, 125 g ai/ha): 100 | Plant response rating (0 to 100 scale) ([4]; Preemergence, 31 g ai/ha): 100 | Plant response rating (0 to 100 scale) ([4]; Preemergence, 125 g ai/ha): 100 | Plant response rating (0 to 100 scale) ([5]; Postemergence, 31 g ai/ha): 80 | Plant response rating (0 to 100 scale) ([5]; Postemergence, 125 g ai/ha): 100 | Plant response rating (0 to 100 scale) ([5]; Preemergence, 31 g ai/ha): 70 | Plant response rating (0 to 100 scale) ([5]; Preemergence, 125 g ai/ha): 100 | Plant response rating, Kochia (kochia (Kochia scoparia) [6]; Postemergence, 16 g ai/ha): 70 | Plant response rating, Kochia (kochia (Kochia scoparia) [6]; Postemergence, 31 g ai/ha): 70 | Plant response rating, Kochia (kochia (Kochia scoparia) [6]; Postemergence, 62 g ai/ha): 70 | Plant response rating, Kochia (kochia (Kochia scoparia) [6]; Postemergence, 125 g ai/ha): 80 | Plant response rating, Kochia (kochia (Kochia scoparia) [6]; Preemergence, 16 g ai/ha): 7 | Plant response rating, Kochia (kochia (Kochia scoparia) [6]; Preemergence, 31 g ai/ha): 25 | Plant response rating, Kochia (kochia (Kochia scoparia) [6]; Preemergence, 62 g ai/ha): 35 | Plant response rating, Kochia (kochia (Kochia scoparia) [6]; Preemergence, 125 g ai/ha): 80 | Plant response rating, Blackgrass ([7]; Postemergence, 16 g ai/ha): 15 | Plant response rating, Blackgrass ([7]; Postemergence, 31 g ai/ha): 25 | Plant response rating, Blackgrass ([7]; Postemergence, 62 g ai/ha): 50 | Plant response rating, Blackgrass ([7]; Postemergence, 125 g ai/ha): 60 | Plant response rating, Blackgrass ([7]; Preemergence, 16 g ai/ha): 0 | Plant response rating, Blackgrass ([7]; Preemergence, 31 g ai/ha): 8 | Plant response rating, Blackgrass ([7]; Preemergence, 62 g ai/ha): 20 | Plant response rating, Blackgrass ([7]; Preemergence, 125 g ai/ha): 58 | Plant response rating, Oat, Wild (oat, wild (Avena fatua); Postemergence, 16 g ai/ha): 25 | Plant response rating, Oat, Wild (oat, wild (Avena fatua); Postemergence, 31 g ai/ha): 65 | Plant response rating, Oat, Wild (oat, wild (Avena fatua); Postemergence, 62 g ai/ha): 80 | Plant response rating, Oat, Wild (oat, wild (Avena fatua); Postemergence, 125 g ai/ha): 90 | Plant response rating, Oat, Wild (oat, wild (Avena fatua); Preemergence, 16 g ai/ha): 22 | Plant response rating, Oat, Wild (oat, wild (Avena fatua); Preemergence, 31 g ai/ha): 33 | Plant response rating, Oat, Wild (oat, wild (Avena fatua); Preemergence, 62 g ai/ha): 73 | Plant response rating, Oat, Wild (oat, wild (Avena fatua); Preemergence, 125 g ai/ha): 83 | Plant response rating, Wheat, Spring ([8]; Postemergence, 16 g ai/ha): 15 | Plant response rating, Wheat, Spring ([8]; Postemergence, 31 g ai/ha): 25 | Plant response rating, Wheat, Spring ([8]; Postemergence, 62 g ai/ha): 35 | Plant response rating, Wheat, Spring ([8]; Postemergence, 125 g ai/ha): 55 | Plant response rating, Wheat, Spring ([8]; Preemergence, 16 g ai/ha): 0 | Plant response rating, Wheat, Spring ([8]; Preemergence, 31 g ai/ha): 12 | Plant response rating, Wheat, Spring ([8]; Preemergence, 62 g ai/ha): 28 | Plant response rating, Wheat, Spring ([8]; Preemergence, 125 g ai/ha): 62 | Plant response rating, Barley, Winter ([9]; Postemergence, 16 g ai/ha): 0 | Plant response rating, Barley, Winter ([9]; Postemergence, 31 g ai/ha): 5 | Plant response rating, Barley, Winter ([9]; Postemergence, 62 g ai/ha): 15 | Plant response rating, Barley, Winter ([9]; Postemergence, 125 g ai/ha): 15 | Plant response rating, Barley, Winter ([9]; Preemergence, 16 g ai/ha): 0 | Plant response rating, Barley, Winter ([9]; Preemergence, 31 g ai/ha): 0 | Plant response rating, Barley, Winter ([9]; Preemergence, 62 g ai/ha): 0 | Plant response rating, Barley, Winter ([9]; Preemergence, 125 g ai/ha): 0 | Plant response rating, Wheat, Winter ([10]; Postemergence, 16 g ai/ha): 10 | Plant response rating, Wheat, Winter ([10]; Postemergence, 31 g ai/ha): 15 | Plant response rating, Wheat, Winter ([10]; Postemergence, 62 g ai/ha): 20 | Plant response rating, Wheat, Winter ([10]; Postemergence, 125 g ai/ha): 30 | Plant response rating, Wheat, Winter ([10]; Preemergence, 16 g ai/ha): 0 | Plant response rating, Wheat, Winter ([10]; Preemergence, 31 g ai/ha): 0 | Plant response rating, Wheat, Winter ([10]; Preemergence, 62 g ai/ha): 5 | Plant response rating, Wheat, Winter ([10]; Preemergence, 125 g ai/ha): 17 | Plant response rating, Oilseed Rape ([11]; Postemergence, 16 g ai/ha): 15 | Plant response rating, Oilseed Rape ([11]; Postemergence, 31 g ai/ha): 15 | Plant response rating, Oilseed Rape ([11]; Postemergence, 62 g ai/ha): 20 | Plant response rating, Oilseed Rape ([11]; Postemergence, 125 g ai/ha): 25 | Plant response rating, Oilseed Rape ([11]; Preemergence, 16 g ai/ha): 0 | Plant response rating, Oilseed Rape ([11]; Preemergence, 31 g ai/ha): 0 | Plant response rating, Oilseed Rape ([11]; Preemergence, 62 g ai/ha): 0 | Plant response rating, Oilseed Rape ([11]; Preemergence, 125 g ai/ha): 0 | Plant response rating, Galium ([12]; Postemergence, 16 g ai/ha): 80 | Plant response rating, Galium ([12]; Postemergence, 31 g ai/ha): 90 | Plant response rating, Galium ([12]; Postemergence, 62 g ai/ha): 90 | Plant response rating, Galium ([12]; Postemergence, 125 g ai/ha): 99 | Plant response rating, Galium ([12]; Preemergence, 16 g ai/ha): 78 | Plant response rating, Galium ([12]; Preemergence, 31 g ai/ha): 85 | Plant response rating, Galium ([12]; Preemergence, 62 g ai/ha): 97 | Plant response rating, Galium ([12]; Preemergence, 125 g ai/ha): 100 | Plant response rating, Barley, Spring ([13]; Postemergence, 16 g ai/ha): 0 | Plant response rating, Barley, Spring ([13]; Postemergence, 31 g ai/ha): 5 | Plant response rating, Barley, Spring ([13]; Postemergence, 62 g ai/ha): 10 | Plant response rating, Barley, Spring ([13]; Postemergence, 125 g ai/ha): 20 | Plant response rating, Barley, Spring ([13]; Preemergence, 16 g ai/ha): 0 | Plant response rating, Barley, Spring ([13]; Preemergence, 31 g ai/ha): 0 | Plant response rating, Barley, Spring ([13]; Preemergence, 62 g ai/ha): 2 | Plant response rating, Barley, Spring ([13]; Preemergence, 125 g ai/ha): 10
